Experimental data as given in PubChem BioAssay (NCI).
Values joined by “and” are separate entries in the source; they are usually repeats but may differ in a detail not shown here. Equal values may be shown once.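 1) Cells in 96-well plates. 2) Compound, 48 h, 5 concentrations. 3) Linear interpolation between surrounding doses. 4) Unreached endpoint = highest concentration. GI50 is the concentration that inhibits growth by half. TGI denotes the concentration required for complete inhibition of growth.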

Experiments:
Experiment in all cases: NCI tumour cell line growth inhibition, 48 h
[1] = system: HOP-62 NSCLC
[2] = system: NCI-H23 lung
[3] = system: HT29 colon
[4] = system: SK-MEL-2 melanoma
[5] = system: NCI-H522 lung
[6] = system: RPMI-8226 leukemia
[7] = system: IGROV1 ovarian
[8] = system: SK-MEL-5 melanoma
[9] = system: MDA-MB-435
[10] = system: HS 578T breast

Structure (SMILES) | GI50 [1] [µM] | TGI [1] | GI50 [2] [µM] | TGI [2] | GI50 [3] [µM] | TGI [3] | GI50 [4] [µM] | TGI [4] | GI50 [5] | TGI [5] | GI50 [6] [µM] | TGI [6] [µM] | GI50 [7] [µM] | TGI [7] | GI50 [8] [µM] | TGI [8] | GI50 [9] [µM] | TGI [9] | GI50 [10] [µM] | TGI [10]
CCN1C(=O)CNc2ncc(-c3ccc(-c4ncn[nH]4)nc3C)nc21 | 0.14 | 2.46 µM | 0.238 | 8.27 µM | 0.317 | 11.6 µM | 0.162 | 0.711 µM | 0.147 µM | 2.88 µM | 0.0454 | 0.553 | 0.045 | 0.606 µM | 0.0864 | 0.792 µM | 0.162 | 1.63 µM | 0.111 | 0.526 µM
COc1ccc(OC)c(/C=C/C(=O)N/N=C/c2ccc(Cl)cc2)c1 | 0.102 | > 70.9 µM | 0.105 |  | 0.0388 | 4.65 µM | 1.06 | > 100 µM | 0.0298 µM | 5.72 µM | 0.286 | > 39.6 | 0.123 | > 79.3 µM | 0.0363 | 12.6 µM | 0.0263 | 0.106 µM | 0.188 | > 100 µM
CN(C)CCCn1c2c(c3ccccc3c1=O)C(=O)c1ccccc1-2 | 1.74 | 6.61 µM | 1.75 | 8.39 µM | 0.749 | 4.51 µM | 13.1 | > 100 µM | 3.62 µM | > 100 µM | 1.4 | 5.79 | 2.29 | > 100 µM |  |  | 2.82 | 12 µM | 8.06 | 38 µM
COc1cc(C2=NN(C(C)=O)C(c3ccc(OC(C)=O)cc3OC(C)=O)O2)c(OC(C)=O)c2ccccc12 (stereo unspecified) | 0.565 | 14.6 µM | 2.55 | > 78.9 µM | 4.48 | 41.3 µM | 10.8 | 49.4 µM | 1.19 µM | 11 µM | 2.74 | 14.7 | 0.82 | 42.6 µM | 0.984 | 7.54 µM | 1.38 | 39 µM | 13.1 | > 100 µM
O=C(c1cccc(O)c1O)c1cn(Cc2ccc(F)cc2)c2cccc(O)c12 | 5.41 | 19.5 µM | 4.12 | 19.8 µM | 7.43 | 23.4 µM | 7.93 | 23.2 µM | 1.38 µM | 8.08 µM | 0.564 | 6.99 | 0.833 | 7.85 µM | 1.73 | 4.97 µM | 5.23 | 36.3 µM | 3.42 | 20.6 µM
NC(N)=NCCCn1c2c(c3ccccc3c1=O)C(=O)c1ccccc1-2 | 0.695 | 3.64 µM |  |  | 32.6 | > 100 µM | 19.5 | 33.6 µM | 2.45 µM | 11.1 µM | 42.7 | > 100 | 10.6 | 22.6 µM | 15.1 | 29.5 µM | 25.9 | 71.5 µM | 2.67 | 25.7 µM
CCC1(O)C(=O)OCc2c1cc1n(c2=O)Cc2cc3ccc(C=O)cc3nc2-1 (stereo unspecified) | 0.476 | 14.9 µM and 1.56 µM | 0.816 | 2.71 µM and 16.7 µM |  | 16.5 µM and > 89 µM | 17.6 | 40.6 µM and 39.2 µM | 6.8 µM and 2.9 µM | 15.4 µM and 13.8 µM |  | 30.4 | 5.11 | 20 µM and 50.7 µM | 1.57 | 6.95 µM and 6.23 µM | 5.9 | 31.2 µM and 35.7 µM | 27 | 50 µM and > 100 µM
CCC#CC[C@H]1C/C=C2/C(=O)C=C[C@@H]2C/C=C\CCCC(=O)O1 | 1.02 | 3.26 µM | 0.873 | 2.03 µM | 0.894 | 2.39 µM | 1.17 | 3.52 µM | 0.663 µM | 1.83 µM | 0.267 | 1.86 | 1.47 | 4.33 µM | 0.854 | 1.71 µM | 0.68 | 2.18 µM | 1.96 | 14.8 µM
COc1ccc2c(c1)C(=O)c1c-2n(CCCn2ccnc2)c(=O)c2ccccc12 | 0.137 | 0.781 µM | 0.284 | 7.86 µM |  |  | 0.843 | 8.82 µM | 0.174 µM | 5.5 µM | 0.223 | 2 | 0.204 | 2.55 µM | 0.154 | 0.344 µM | 0.67 | 3.24 µM | 1.49 | 17.8 µM
COc1cc(NC(=O)c2cc(O)c(CC=C(C)C)c(O)c2)cc2c1O[C@]1(C)CC[C@@H](O)C(C)(C)[C@H]1C2 | 5.2 | 30.9 µM | 3.99 | 25.7 µM | 3.47 | 11.9 µM | 1.33 | 15.1 µM | 3.42 µM | 12.3 µM | 0.428 | 2.73 | 7.51 | 54.9 µM | 1.51 | 3.61 µM | 3.73 | 23.7 µM | 0.456 | 15.5 µM
CCN(CC)c1sc(N(CC)CC)c2c1SSSSS2 | 2.61 | 4.99 µM | 0.255 | 0.674 µM | 2.06 | 5.2 µM | 3.02 | 14.6 µM | 0.416 µM |  | 0.366 | 1.36 | 0.715 | 2.77 µM | 0.851 | 1.95 µM | 0.844 | 2.09 µM | 2.75 | 23.2 µM
Nc1ncc(-c2cnn(CCO)c2)c2scc(-c3ccc(NC(=O)Nc4cccc(F)c4)cc3)c12 | 0.418 | 2.71 µM | 0.211 | 2.3 µM | 0.283 | 2.07 µM | 0.364 | 1.66 µM | 0.449 µM | 2.29 µM | 0.454 | 2.81 | 0.285 | 2.61 µM | 1.03 | 2.35 µM | 0.209 | 1.83 µM | 0.273 | 3.02 µM
Cc1cc(C)c(C(=O)CC(=O)c2cccnc2)c(C)c1 | 6.32 | > 100 µM | 11.1 | > 100 µM | 4.85 | > 100 µM | 17.3 | > 100 µM | 13.4 µM | > 100 µM | 5.31 | > 100 | 4.39 | > 100 µM | 7.56 | > 100 µM | 7.48 | > 100 µM | 9.4 | > 100 µM
O=C(Nc1ccc(Cl)cc1)c1cc(-c2ccc(F)cc2)c2sc(=O)[nH]c2n1 | 2.04 | 5.69 µM | 1.19 | 5.79 µM | 3.02 | 11.4 µM | 1.59 | 3.93 µM | 0.478 µM | 5.42 µM | 0.391 | 2.22 | 1.78 | 7.06 µM | 0.493 | 2.13 µM | 3.01 | 17.4 µM | 2.13 | 13.1 µM
COc1ccc2c(c1)C=C([N+](=O)[O-])C(C1OC(C)(C)OC1C1COC(C)(C)O1)O2 (stereo unspecified) |  | 37.4 µM |  | 24.2 µM |  | 4.34 µM |  | 4.36 µM |  | 2.29 µM |  | 4.54 |  | 31.7 µM |  | 9.17 µM |  | 14.8 µM |  | > 100 µM
CCOC(=O)c1c(CN2CCN(c3ccccc3)CC2)n(-c2ccccc2)c2cc(Br)c(O)cc12 | 17.2 | 33.4 µM | 14.9 | 38.3 µM | 11.8 | 32.5 µM | 17.2 | 36.2 µM | 16.1 µM | 44.5 µM | 3.61 | > 100 |  |  | 8.82 | 23.1 µM | 11.3 | 34.4 µM | 14.4 | > 100 µM
CN/N=C(/CCN1CCCC1)CC(c1ccccc1)c1c(O)c2ccccc2oc1=O (stereo unspecified) |  | > 100 µM |  | > 100 µM |  | > 100 µM |  | > 100 µM |  | > 100 µM |  | > 31.6 |  | > 100 µM |  | > 100 µM |  | > 100 µM |  | > 100 µM
COc1ccc(C(=O)c2cc(C)c(OC)c(C)c2)c(OC)c1N(C(=O)C(Cl)Cl)C(=O)C(Cl)Cl | 0.0666 | > 100 µM | 0.0909 | > 100 µM | 0.323 | > 40.6 µM | 0.0669 | > 100 µM | 0.0322 µM |  | 0.0794 | 20.8 | 0.101 | > 100 µM | 0.0509 | 2.14 µM | 0.021 | 0.0625 µM | 0.0277 | > 100 µM
CCN(CC)c1ccc(C(=N)c2ccc(N(CC)CC)cc2)cc1 | 0.831 | 2.6 µM | 0.26 | 0.925 µM | 0.319 | 2.83 µM | 0.423 | 1.52 µM | 0.193 µM | 0.765 µM | 0.358 | 2.42 | 0.565 | 4.43 µM | 0.342 | 1.24 µM | 0.318 | 1.3 µM | 0.59 | 2.39 µM
NC(CC(=O)OCc1ccccc1)C(=O)OCc1ccccc1 (stereo unspecified) |  | > 100 µM |  | > 100 µM |  |  |  | > 100 µM |  | > 100 µM |  | > 100 |  | > 100 µM |  | > 100 µM |  | > 100 µM |  | > 100 µM
